{"source": "patent US10967078B2", "about": "“Radiolabelled mGluR2 PET ligands” (Janssen Pharmaceutica NV, priority 2014, dated 2021)", "experiment": "Biodistribution studies in normal female Wistar rats", "format": "in vivo, rat", "conditions": "for % ID blood / SUV blood / % ID bone / SUV bone / % ID carcass / % ID cerebellum / SUV cerebellum / SUV cerebrum + cerebellum / % ID cerebrum total / % ID cortex / SUV cortex / % ID heart / % ID hippocampus / SUV hippocampus / % ID intestines / % ID kidneys / % ID liver / % ID lungs / % ID muscle / SUV muscle / % ID rest of cerebrum / SUV rest of cerebrum / % ID spleen + pancreas / % ID stomach / % ID striatum / SUV striatum / % ID urine / SUV whole cerebrum: mean n=3; for SUV cerebrum + cerebellum / Total brain uptake: cerebrum + cerebellum; for Total brain uptake: n=3", "description": "High-performance liquid chromatography (HPLC) analysis was performed on a LaChrom Elite® HPLC system (Hitachi, Armstadt, Germany) connected to a UV spectrometer. For the analysis of radiolabeled compounds, the HPLC eluate, after passage through the UV detector, was led over a shielded 3-inch NaI(Tl) scintillation detector connected to a single channel analyser (Gabi box, Raytest, Straubenhardt, Germany). The output signal was recorded and analysed using a GINA Star data acquisition system (Raytest, Straubenhardt, Germany). Radioactivity in samples of biodistribution studies was quantified using an automated gamma counter equipped with a 3-inch NaI(Tl) well crystal coupled to a multichannel analyser (Wallac 2480 Wizard, Wallac, Turku, Finland). Results were corrected for background radiation, physical decay and counter dead time. Animals were housed in individually ventilated cages in a thermoregulated (˜22° C.), humidity-controlled facility under a 12 h/12 h light/dark cycle with access to food and water ad libitum. All animal experiments were conducted according to the Belgian code of practice for the care and use of animals, after approval from the local University Ethics Committee for Animals.\nBiodistribution studies of [^11C]-2 and [^11C]-1 were carried out in healthy female Wister rats (body weight 185-220 g) at 2 min, 30 min and 60 min post injection (p.i.) (n=3/time point). Rats were injected with about 18 MBq of the tracer via a tail vein under anesthesia (2.5% isoflurane in O2 at 1 L/min flow rate) and sacrificed by decapitation at the above specified time points. Blood and major organs were collected in tared tubes and weighed. The radioactivity in blood, organs and other body parts was measured using an automated gamma counter. For calculation of total blood radioactivity, blood mass was assumed to be 7% of the body mass. For calculation of total muscle and total bone radioactivity, muscle and bone mass were assumed to be 40% and 12% of the body mass, respectively."}
{"smiles": "C[C@H]1CN(c2ccc(C(F)(F)F)cc2)C(=O)c2c(-c3ccnc(N[11CH3])c3)cnn21", "note": "[[^11C]-2]", "values": [{"measurement": "2 min - to- 30 min wash-out ratio", "setting": "blood", "value": 1.75}, {"measurement": "% ID blood", "setting": "blood, 2 min p.i.", "value": 4.9, "unit": "% ID"}, {"measurement": "SUV blood", "setting": "blood, 2 min p.i.", "value": 0.70, "unit": "SUV"}, {"measurement": "% ID blood", "setting": "blood, 30 min p.i.", "value": 2.8, "unit": "% ID"}, {"measurement": "SUV blood", "setting": "blood, 30 min p.i.", "value": 0.40, "unit": "SUV"}, {"measurement": "% ID blood", "setting": "blood, 60 min p.i.", "value": 2.0, "unit": "% ID"}, {"measurement": "SUV blood", "setting": "blood, 60 min p.i.", "value": 0.29, "unit": "SUV"}, {"measurement": "2 min - to- 30 min wash-out ratio", "setting": "bone", "value": 1.34}, {"measurement": "% ID bone", "setting": "bone, 2 min p.i.", "value": 7.0, "unit": "% ID"}, {"measurement": "SUV bone", "setting": "bone, 2 min p.i.", "value": 0.59, "unit": "SUV"}, {"measurement": "% ID bone", "setting": "bone, 30 min p.i.", "value": 4.9, "unit": "% ID"}, {"measurement": "SUV bone", "setting": "bone, 30 min p.i.", "value": 0.44, "unit": "SUV"}, {"measurement": "% ID bone", "setting": "bone, 60 min p.i.", "value": 4.2, "unit": "% ID"}, {"measurement": "SUV bone", "setting": "bone, 60 min p.i.", "value": 0.37, "unit": "SUV"}, {"measurement": "% ID carcass", "setting": "2 min p.i.", "value": 39.5, "unit": "% ID"}, {"measurement": "% ID carcass", "setting": "30 min p.i.", "value": 49.9, "unit": "% ID"}, {"measurement": "% ID carcass", "setting": "60 min p.i.", "value": 44.8, "unit": "% ID"}, {"measurement": "2 min - to- 30 min wash-out ratio", "setting": "cerebellum", "value": 2.85}, {"measurement": "% ID cerebellum", "setting": "cerebellum, 2 min p.i.", "value": 0.279, "unit": "% ID"}, {"measurement": "SUV cerebellum", "setting": "cerebellum, 2 min p.i.", "value": 1.78, "unit": "SUV"}, {"measurement": "% ID cerebellum", "setting": "cerebellum, 30 min p.i.", "value": 0.084, "unit": "% ID"}, {"measurement": "SUV cerebellum", "setting": "cerebellum, 30 min p.i.", "value": 0.62, "unit": "SUV"}, {"measurement": "% ID cerebellum", "setting": "cerebellum, 60 min p.i.", "value": 0.058, "unit": "% ID"}, {"measurement": "SUV cerebellum", "setting": "cerebellum, 60 min p.i.", "value": 0.45, "unit": "SUV"}, {"measurement": "SUV cerebrum + cerebellum", "setting": "2 min p.i.", "value": 1.80, "unit": "SUV"}, {"measurement": "Total brain uptake", "setting": "2 min p.i.", "value": 1.4, "unit": "% ID"}, {"measurement": "Total brain uptake", "setting": "2 min p.i., listed as [^11C-2]", "value": "1.44 ± 0.24", "unit": "% ID"}, {"measurement": "SUV cerebrum + cerebellum", "setting": "30 min p.i.", "value": 0.67, "unit": "SUV"}, {"measurement": "Total brain uptake", "setting": "30 min p.i.", "value": "0.50 ± 0.05", "unit": "% ID"}, {"measurement": "SUV cerebrum + cerebellum", "setting": "60 min p.i.", "value": 0.49, "unit": "SUV"}, {"measurement": "Total brain uptake", "setting": "60 min p.i.", "value": "0.38 ± 0.03", "unit": "% ID"}, {"measurement": "% ID cerebrum total", "setting": "2 min p.i.", "value": 1.153, "unit": "% ID"}, {"measurement": "% ID cerebrum total", "setting": "30 min p.i.", "value": 0.408, "unit": "% ID"}, {"measurement": "% ID cerebrum total", "setting": "60 min p.i.", "value": 0.316, "unit": "% ID"}, {"measurement": "2 min - to- 30 min wash-out ratio", "setting": "cortex", "value": 3.04}, {"measurement": "% ID cortex", "setting": "cortex, 2 min p.i.", "value": 0.064, "unit": "% ID"}, {"measurement": "SUV cortex", "setting": "cortex, 2 min p.i.", "value": 2.23, "unit": "SUV"}, {"measurement": "% ID cortex", "setting": "cortex, 30 min p.i.", "value": 0.024, "unit": "% ID"}, {"measurement": "SUV cortex", "setting": "cortex, 30 min p.i.", "value": 0.74, "unit": "SUV"}, {"measurement": "% ID cortex", "setting": "cortex, 60 min p.i.", "value": 0.014, "unit": "% ID"}, {"measurement": "SUV cortex", "setting": "cortex, 60 min p.i.", "value": 0.58, "unit": "SUV"}, {"measurement": "% ID heart", "setting": "2 min p.i.", "value": 1.0, "unit": "% ID"}, {"measurement": "% ID heart", "setting": "30 min p.i.", "value": 0.4, "unit": "% ID"}, {"measurement": "% ID heart", "setting": "60 min p.i.", "value": 0.3, "unit": "% ID"}, {"measurement": "2 min - to- 30 min wash-out ratio", "setting": "hippocampus", "value": 2.31}, {"measurement": "% ID hippocampus", "setting": "hippocampus, 2 min p.i.", "value": 0.046, "unit": "% ID"}, {"measurement": "SUV hippocampus", "setting": "hippocampus, 2 min p.i.", "value": 1.49, "unit": "SUV"}, {"measurement": "% ID hippocampus", "setting": "hippocampus, 30 min p.i.", "value": 0.018, "unit": "% ID"}, {"measurement": "SUV hippocampus", "setting": "hippocampus, 30 min p.i.", "value": 0.64, "unit": "SUV"}, {"measurement": "% ID hippocampus", "setting": "hippocampus, 60 min p.i.", "value": 0.016, "unit": "% ID"}, {"measurement": "SUV hippocampus", "setting": "hippocampus, 60 min p.i.", "value": 0.49, "unit": "SUV"}, {"measurement": "% ID intestines", "setting": "2 min p.i.", "value": 12.2, "unit": "% ID"}, {"measurement": "% ID intestines", "setting": "30 min p.i.", "value": 19.4, "unit": "% ID"}, {"measurement": "% ID intestines", "setting": "60 min p.i.", "value": 24.2, "unit": "% ID"}, {"measurement": "% ID kidneys", "setting": "2 min p.i.", "value": 5.3, "unit": "% ID"}, {"measurement": "% ID kidneys", "setting": "30 min p.i.", "value": 2.2, "unit": "% ID"}, {"measurement": "% ID kidneys", "setting": "60 min p.i.", "value": 1.6, "unit": "% ID"}, {"measurement": "% ID liver", "setting": "2 min p.i.", "value": 26.5, "unit": "% ID"}, {"measurement": "% ID liver", "setting": "30 min p.i.", "value": 16.0, "unit": "% ID"}, {"measurement": "% ID liver", "setting": "60 min p.i.", "value": 11.9, "unit": "% ID"}, {"measurement": "% ID lungs", "setting": "2 min p.i.", "value": 6.8, "unit": "% ID"}, {"measurement": "% ID lungs", "setting": "30 min p.i.", "value": 1.8, "unit": "% ID"}, {"measurement": "% ID lungs", "setting": "60 min p.i.", "value": 1.3, "unit": "% ID"}, {"measurement": "2 min - to- 30 min wash-out ratio", "setting": "muscle", "value": 0.46}, {"measurement": "% ID muscle", "setting": "muscle, 2 min p.i.", "value": 11.1, "unit": "% ID"}, {"measurement": "SUV muscle", "setting": "muscle, 2 min p.i.", "value": 0.26, "unit": "SUV"}, {"measurement": "% ID muscle", "setting": "muscle, 30 min p.i.", "value": 24.1, "unit": "% ID"}, {"measurement": "SUV muscle", "setting": "muscle, 30 min p.i.", "value": 0.56, "unit": "SUV"}, {"measurement": "% ID muscle", "setting": "muscle, 60 min p.i.", "value": 21.4, "unit": "% ID"}, {"measurement": "SUV muscle", "setting": "muscle, 60 min p.i.", "value": 0.48, "unit": "SUV"}, {"measurement": "2 min - to- 30 min wash-out ratio", "setting": "rest of cerebrum", "value": 2.71}, {"measurement": "% ID rest of cerebrum", "setting": "rest of cerebrum, 2 min p.i.", "value": 0.944, "unit": "% ID"}, {"measurement": "SUV rest of cerebrum", "setting": "rest of cerebrum, 2 min p.i.", "value": 1.79, "unit": "SUV"}, {"measurement": "% ID rest of cerebrum", "setting": "rest of cerebrum, 30 min p.i.", "value": 0.323, "unit": "% ID"}, {"measurement": "SUV rest of cerebrum", "setting": "rest of cerebrum, 30 min p.i.", "value": 0.66, "unit": "SUV"}, {"measurement": "% ID rest of cerebrum", "setting": "rest of cerebrum, 60 min p.i.", "value": 0.256, "unit": "% ID"}, {"measurement": "SUV rest of cerebrum", "setting": "rest of cerebrum, 60 min p.i.", "value": 0.49, "unit": "SUV"}, {"measurement": "% ID spleen + pancreas", "setting": "2 min p.i.", "value": 2.4, "unit": "% ID"}, {"measurement": "% ID spleen + pancreas", "setting": "30 min p.i.", "value": 1.4, "unit": "% ID"}, {"measurement": "% ID spleen + pancreas", "setting": "60 min p.i.", "value": 1.1, "unit": "% ID"}, {"measurement": "% ID stomach", "setting": "2 min p.i.", "value": 2.3, "unit": "% ID"}, {"measurement": "% ID stomach", "setting": "30 min p.i.", "value": 6.5, "unit": "% ID"}, {"measurement": "% ID stomach", "setting": "60 min p.i.", "value": 12.3, "unit": "% ID"}, {"measurement": "2 min - to- 30 min wash-out ratio", "setting": "striatum", "value": 2.59}, {"measurement": "% ID striatum", "setting": "striatum, 2 min p.i.", "value": 0.099, "unit": "% ID"}, {"measurement": "SUV striatum", "setting": "striatum, 2 min p.i.", "value": 1.68, "unit": "SUV"}, {"measurement": "% ID striatum", "setting": "striatum, 30 min p.i.", "value": 0.043, "unit": "% ID"}, {"measurement": "SUV striatum", "setting": "striatum, 30 min p.i.", "value": 0.65, "unit": "SUV"}, {"measurement": "% ID striatum", "setting": "striatum, 60 min p.i.", "value": 0.030, "unit": "% ID"}, {"measurement": "SUV striatum", "setting": "striatum, 60 min p.i.", "value": 0.49, "unit": "SUV"}, {"measurement": "% ID urine", "setting": "2 min p.i.", "value": 0.1, "unit": "% ID"}, {"measurement": "% ID urine", "setting": "30 min p.i.", "value": 0.5, "unit": "% ID"}, {"measurement": "% ID urine", "setting": "60 min p.i.", "value": 11, "unit": "% ID"}, {"measurement": "2 min - to- 30 min wash-out ratio", "setting": "whole cerebrum", "value": 2.70}, {"measurement": "SUV whole cerebrum", "setting": "whole cerebrum, 2 min p.i.", "value": 1.79, "unit": "SUV"}, {"measurement": "SUV whole cerebrum", "setting": "whole cerebrum, 30 min p.i.", "value": 0.66, "unit": "SUV"}, {"measurement": "SUV whole cerebrum", "setting": "whole cerebrum, 60 min p.i.", "value": 0.49, "unit": "SUV"}]}
